Test results reported in patent publication US20150038438A1, “ANTIBACTERIAL COMPOUNDS AND METHODS FOR USE” (PTC THERAPEUTICS, INC., priority 2011, published 2015).
Values after ≈ are worked out from the molar mass of the structure shown. Where a name gives a salt, the structure may show the parent alone. Read-outs that look alike come from different tables or passages of the source.

Assays:
Assay in all cases: Antibacterial activity, microbroth dilution method (MIC)
[1] = test system: control Gram-negative E. coli 25922 strain; format: cell-based, Escherichia coli; conditions: Escherichia coli
Summary of the method: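 Each strain is exposed to test compound in a microbroth dilution series; visible growth is scored macroscopically, and the lowest growth-free concentration is recorded as MIC in μg/mL.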

[2] = test system: Gram-positive Staphylococcus aureus (S. aureus) 29213; format: cell-based; conditions: Staphylococcus aureus, Gram-positive S. aureus 29213
Summary of the method: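 Read-out: visual absence of growth. The lowest concentration meeting this gives the MIC, expressed in μg/mL, with microbroth dilution as the method.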

[3] = test system: super sensitive Gram-negative Escherichia coli (E. coli) BAS849; format: cell-based; conditions: Escherichia coli, read-out: MIC, E. coli BAS849
Summary of the method: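 Lowest concentration stopping macroscopically visible growth under test conditions, by broth microdilution, defines the MIC (μg/mL).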

[4] = super sensitive Gram-negative E. coli BAS849, microbroth dilution

| Structure (SMILES) | MIC [1] [µg/mL] | MIC [2] [µg/mL] | MIC [3, 4] [µg/mL] | MIC [3] [µg/mL] |
| --- | --- | --- | --- | --- |
| CC1COc2cc(N3C[C@@H]4[C@@H](N)[C@@H]4C3)ccc2-c2[nH]c(=O)c(C(=O)O)c(O)c21 (stereo partly drawn) [Cpd 86, 9-((cis,cis)-6-amino-3-azabicyclo[3.1.0]hexan-3-yl)-4-hydroxy-5-methyl-2-oxo-1,2,5,6-tetrahydrobenzo[2,3]oxepino[4,5-b]pyridine-3-carboxylic acid hydrochloride] | 3.5 to 12.5 | 12.5 to 150 | < 1 |  |
| CCN(CC)Cc1cc2cc3c(cc2n1C)CCCc1c-3[nH]c(=O)c(C(=O)O)c1O.Cl [Cpd 43, 10-((diethylamino)methyl)-4-hydroxy-9-methyl-2-oxo-1,2,5,6,7,9-hexahydropyrido[3′,2′:6,7]cyclohepta[1,2-f]indole-3-carboxylic acid hydrochloride] | 1 to 3.5 | 3.5 to 12.5 | < 1 |  |
| CCNCc1cc2cc3c(cc2n1C)NCCc1c-3[nH]c(=O)c(C(=O)O)c1O.Cl [Cpd 100, 10-((ethylamino)methyl)-4-hydroxy-9-methyl-2-oxo-1,2,5,6,7,9-hexahydropyrido[2′,3′:4,5]azepino[3,2-f]indole-3-carboxylic acid hydrochloride] | 12.5 to 150 | 12.5 to 150 | 1 to 3.5 |  |
| Cn1ccc2cc3c(cc21)C=CCc1c-3[nH]c(=O)c(C(=O)O)c1O [Cpd 16, 4-hydroxy-9-methyl-2-oxo-1,2,5,9-tetrahydropyrido[3′,2′:6,7]cyclohepta[1,2-f]indole-3-carboxylic acid] | 1 to 3.5 (≈ 3.1 to 10.9 µM) | 1 to 3.5 (≈ 3.1 to 10.9 µM) | < 1 |  |
| CN1CCc2c([nH]c(=O)c(C(=O)O)c2O)-c2ccc(N3CCCC3)cc21 [Cpd 93, 4-hydroxy-7-methyl-2-oxo-9-(pyrrolidin-1-yl)-2,5,6,7-tetrahydro-1H-benzo[b]pyrido[2,3-d]azepine-3-carboxylic acid] | 12.5 to 150 (≈ 35.2 to 422 µM) | 12.5 to 150 (≈ 35.2 to 422 µM) | 3.5 to 12.5 (≈ 9.85 to 35.2 µM) |  |
| CN(C)c1ccc2c(c1)CCc1cc(C(=O)O)c(=O)[nH]c1-2 [Cpd 1, 8-(dimethylamino)-2-oxo-1,2,5,6-tetrahydrobenzo[h]quinoline-3-carboxylic acid] | 12.5 to 150 (≈ 44 to 528 µM) | 12.5 to 150 (≈ 44 to 528 µM) | 3.5 to 12.5 (≈ 12.3 to 44 µM) |  |
| N[C@@H]1[C@H]2CN(c3cc4c(c(F)c3F)-c3[nH]c(=O)c(C(=O)O)c(O)c3CCC4)C[C@@H]12 [Cpd 124, 9-((cis,cis)-6-amino-3-azabicyclo[3.1.0]hexan-3-yl)-10,11-difluoro-4-hydroxy-2-oxo-2,5,6,7-tetrahydro-1H-benzo[6,7]cyclohepta[1,2-b]pyridine-3-carboxylic acid hydrochloride] | 3.5 to 12.5 | 12.5 to 150 | < 1 |  |
| CCNc1ccc2c(c1)CCCCc1c-2[nH]c(=O)c(C(=O)O)c1O [Cpd 129, 10-(ethylamino)-4-hydroxy-2-oxo-1,2,5,6,7,8-hexahydrobenzo[7,8]cycloocta[1,2-b]pyridine-3-carboxylic acid] | 12.5 to 150 (≈ 38.1 to 457 µM) | 3.5 to 12.5 (≈ 10.7 to 38.1 µM) | 1 to 3.5 (≈ 3.05 to 10.7 µM) |  |
| CC1CCc2cc(N3C[C@@H]4[C@@H](N)[C@@H]4C3)ccc2-c2[nH]c(=O)c(C(=O)O)c(O)c21 (stereo partly drawn) [Cpd 13, 9-((cis,cis)-6-amino-3-azabicyclo[3.1.0]hexan-3-yl)-4-hydroxy-5-methyl-2-oxo-2,5,6,7-tetrahydro-1H-benzo[6,7]cyclohepta[1,2-b]pyridine-3-carboxylic acid hydrochloride] | 1 to 3.5 | 3.5 to 12.5 | < 1 |  |
| Cl.Cn1c(CN2CCCC2)cc2cc3c(cc21)CCCc1c-3[nH]c(=O)c(C(=O)O)c1O [Cpd 50, 4-hydroxy-9-methyl-2-oxo-10-(pyrrolidin-1-ylmethyl)-1,2,5,6,7,9-hexahydropyrido[3′,2′:6,7]cyclohepta[1,2-f]indole-3-carboxylic acid hydrochloride] | < 1 | 3.5 to 12.5 | < 1 |  |
| CN1CCCN(c2ccc3c(c2)CCCc2c-3[nH]c(=O)c(C(=O)O)c2O)CC1.Cl [Cpd 112, 4-hydroxy-9-(4-methyl-1,4-diazepan-1-yl)-2-oxo-2,5,6,7-tetrahydro-1H-benzo[6,7]cyclohepta[1,2-b]pyridine-3-carboxylic acid hydrochloride] | 3.5 to 12.5 | 12.5 to 150 | 1 to 3.5 |  |
| COc1ccc(CNCc2cc3cc4c(cc3n2C)OCCc2c-4[nH]c(=O)c(C(=O)O)c2O)c(OC)c1.Cl [Cpd 170, 10-(((2,4-dimethoxybenzyl)amino)methyl)-4-hydroxy-9-methyl-2-oxo-2,5,6,9-tetrahydro-1H-pyrido[2′,3′:4,5]oxepino[3,2-f]indole-3-carboxylic acid hydrochloride] | 1 to 3.5 | 1 to 3.5 | < 1 |  |
| CN(CCO)Cc1cc2cc3c(cc2n1C)CCCc1c-3[nH]c(=O)c(C(=O)O)c1O.Cl [Cpd 149, 4-hydroxy-10-(((2-hydroxyethyl)(methyl)amino)methyl)-9-methyl-2-oxo-1,2,5,6,7,9-hexahydropyrido[3′,2′:6,7]cyclohepta[1,2-f]indole-3-carboxylic acid hydrochloride] | 3.5 to 12.5 | 3.5 to 12.5 | < 1 |  |
| C#CCNCc1cc2cc3c(cc2n1C)CCCc1c-3[nH]c(=O)c(C(=O)O)c1O.Cl [Cpd 45, 4-hydroxy-9-methyl-2-oxo-10-((prop-2-yn-1-ylamino)methyl)-1,2,5,6,7,9-hexahydropyrido[3′,2′:6,7]cyclohepta[1,2-f]indole-3-carboxylic acid hydrochloride] | 1 to 3.5 | 1 to 3.5 | < 1 |  |
| Cl.Cl.Cn1c(CNCCN2CCCC2)cc2cc3c(cc21)CCCc1c-3[nH]c(=O)c(C(=O)O)c1O [Cpd 152, 4-hydroxy-9-methyl-2-oxo-10-(((2-(pyrrolidin-1-yl)ethyl)amino)methyl)-1,2,5,6,7,9-hexahydropyrido[3′,2′:6,7]cyclohepta[1,2-f]indole-3-carboxylic acid dihydrochloride] | 3.5 to 12.5 | 12.5 to 150 | < 1 |  |
| Cn1ccc2cc3c(cc21)OCCc1c-3[nH]c(=O)c(C(=O)O)c1O [Cpd 87, 4-hydroxy-9-methyl-2-oxo-2,5,6,9-tetrahydro-1H-pyrido[2′,3′:4,5]oxepino[3,2-f]indole-3-carboxylic acid] | 3.5 to 12.5 (≈ 10.7 to 38.3 µM) | 12.5 to 150 (≈ 38.3 to 460 µM) | < 1 |  |
| CC(CO)NCc1cc2cc3c(cc2n1C)CCCc1c-3[nH]c(=O)c(C(=O)O)c1O.Cl (stereo not drawn) [Cpd 151, 4-hydroxy-10-(((1-hydroxypropan-2-yl)amino)methyl)-9-methyl-2-oxo-1,2,5,6,7,9-hexahydropyrido[3′,2′:6,7]cyclohepta[1,2-f]indole-3-carboxylic acid hydrochloride] | 1 to 3.5 | 12.5 to 150 | 3.5 to 12.5 |  |
| N[C@@H]1[C@H]2CN(c3ccc4c(c3)CCCc3c-4[nH]c(=O)c(C(=O)O)c3O)C[C@@H]12 [Cpd 9, 9-((cis,cis)-6-amino-3-azabicyclo[3.1.0]hexan-3-yl)-4-hydroxy-2-oxo-2,5,6,7-tetrahydro-1H-benzo[6,7]cyclohepta[1,2-b]pyridine-3-carboxylic acid trifluoroacetate] | < 1 | 3.5 to 12.5 |  | < 1 |
| CCNCc1cc2cc3c(cc2n1C)Cc1c-3[nH]c(=O)c(C(=O)O)c1O.Cl [Cpd 19, 2-((ethylamino)methyl)-8-hydroxy-1-methyl-6-oxo-1,5,6,9-tetrahydropyrido[3′,2′:4,5]cyclopenta[1,2-f]indole-7-carboxylic acid hydrochloride] | 12.5 to 150 | 12.5 to 150 | 12.5 to 150 |  |
| CC1Cc2cc(N3CCCC3)ccc2-c2[nH]c(=O)c(C(=O)O)c(O)c21 (stereo not drawn) [Cpd 107, 4-hydroxy-5-methyl-2-oxo-8-(pyrrolidin-1-yl)-1,2,5,6-tetrahydrobenzo[h]quinoline-3-carboxylic acid] | 12.5 to 150 (≈ 36.7 to 441 µM) | 3.5 to 12.5 (≈ 10.3 to 36.7 µM) | < 1 |  |
| O=C(O)c1c(O)c2c([nH]c1=O)-c1ccc(N3CCCC3)cc1CCCC2 [Cpd 126, 4-hydroxy-2-oxo-10-(pyrrolidin-1-yl)-1,2,5,6,7,8-hexahydrobenzo[7,8]cycloocta[1,2-b]pyridine-3-carboxylic acid] | 12.5 to 150 (≈ 35.3 to 423 µM) | 1 to 3.5 (≈ 2.82 to 9.88 µM) | < 1 |  |
| CN1CCC2CN(Cc3cc4cc5c(cc4n3C)CCCc3c-5[nH]c(=O)c(C(=O)O)c3O)CC21.Cl.Cl (stereo not drawn) [Cpd 162, 4-hydroxy-9-methyl-10-((1-methylhexahydropyrrolo[3,4-b]pyrrol-5(1H)-yl)methyl)-2-oxo-1,2,5,6,7,9-hexahydropyrido[3′,2′:6,7]cyclohepta[1,2-f]indole-3-carboxylic acid dihydrochloride] | 3.5 to 12.5 | 12.5 to 150 | < 1 |  |
| Cn1ccc2cc3c(cc21)CCCc1c-3[nH]c(=O)c(C(=O)O)c1O [Cpd 17, 4-hydroxy-9-methyl-2-oxo-1,2,5,6,7,9-hexahydropyrido[3′,2′:6,7]cyclohepta[1,2-f]indole-3-carboxylic acid] | 1 to 3.5 (≈ 3.08 to 10.8 µM) | 1 to 3.5 (≈ 3.08 to 10.8 µM) | < 1 |  |
| Cl.Cn1c(CN2CC[C@@H](F)C2)cc2cc3c(cc21)CCCc1c-3[nH]c(=O)c(C(=O)O)c1O [Cpd 46, (R)-10-((3-fluoropyrrolidin-1-yl)methyl)-4-hydroxy-9-methyl-2-oxo-1,2,5,6,7,9-hexahydropyrido[3′,2′:6,7]cyclohepta[1,2-f]indole-3-carboxylic acid hydrochloride] | 1 to 3.5 | 3.5 to 12.5 | < 1 |  |
| CNCCNCc1cc2cc3c(cc2n1C)OCCc1c-3[nH]c(=O)c(C(=O)O)c1O.Cl.Cl [Cpd 181, 4-hydroxy-9-methyl-10-(((2-(methylamino)ethyl)amino)methyl)-2-oxo-2,5,6,9-tetrahydro-1H-pyrido[2′,3′:4,5]oxepino[3,2-f]indole-3-carboxylic acid dihydrochloride] | 12.5 to 150 | 12.5 to 150 | 12.5 to 150 |  |
